The values that follow come from patent US9663496B2, “AMPK-activating heterocyclic compounds and methods for using the same” (Rigel Pharmaceuticals, Inc., priority 2010, dated 2017).

The target of this assay is AMPK. Put plainly: AMPK activation, enzyme-linked immunosorbent assay. The class given is biochemical. The following applies: EC50 for AMPK activation, ELISA. The gist of the method:
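Activator screen performed per well-known kit methods.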
For the compound `O=C(Nc1ccc(Oc2ccc(F)cc2)nc1)c1ccc(C(=O)N2CCC(Oc3ccc(S(=O)(=O)C4CC4)cc3)CC2)nc1` [Compound 247, 6-(4-(4-(cyclopropylsulfonyl)phenoxy)piperidine-1-carbonyl)-N-(6-(4-fluorophenoxy)pyridin-3-yl)nicotinamide], the EC50 was less than 500 nM.
Under `O=C(NC1CCN(Cc2ccc(N3CCCC3)cc2)CC1)c1ccc(C(=O)N2CCC(Oc3ccc(S(=O)(=O)C4CC4)cc3)CC2)nc1` [Compound 248, 6-(4-(4-(cyclopropylsulfonyl)phenoxy)piperidine-1-carbonyl)-N-(1-(4-(pyrrolidin-1-yl)benzyl)piperidin-4-yl)nicotinamide] stands less than 500 nM; under `O=C(NC1CCN(Cc2ccc(OC(F)(F)F)cc2)CC1)c1ccc(C(=O)N2CCC(Oc3ccc(S(=O)(=O)C4CC4)cc3)CC2)nc1` [Compound 249, 6-(4-(4-(cyclopropylsulfonyl)phenoxy)piperidine-1-carbonyl)-N-(1-(4-(trifluoromethoxy)benzyl)piperidin-4-yl)nicotinamide], less than 500 nM; under `CS(=O)(=O)c1ccc(N2CCN(C(=O)c3ccc(C(=O)NC4CCN(Cc5ccc(C#N)cc5)CC4)nc3)CC2)cc1` [Compound 250, N-(1-(4-cyanobenzyl)piperidin-4-yl)-5-(4-(4-(methylsulfonyl)phenyl)piperazine-1-carbonyl)picolinamide], less than 500 nM.
The figure for `CC(C)S(=O)(=O)c1ccc(N2CCN(C(=O)c3ccc(C(=O)NC4CCN(Cc5ccc(C#N)cc5)CC4)nc3)CC2)cc1` [Compound 251, N-(1-(4-cyanobenzyl)piperidin-4-yl)-5-(4-(4-(isopropylsulfonyl)phenyl)piperazine-1-carbonyl)picolinamide] is less than 500 nM; for `N#Cc1ccc(CN2CCC(NC(=O)c3ccc(C(=O)N4CCN(c5ccc(S(=O)(=O)C6CC6)cc5)CC4)cn3)CC2)cc1` [Compound 256, N-(1-(4-cyanobenzyl)piperidin-4-yl)-5-(4-(4-(cyclopropylsulfonyl)phenyl)piperazine-1-carbonyl)picolinamide] it is less than 500 nM; for `N#Cc1ccc(CN2CCC(NC(=O)c3ccc(C(=O)N4CCN(c5ccc(S(=O)(=O)C(F)(F)F)cc5)CC4)cn3)CC2)cc1` [Compound 257, N-(1-(4-cyanobenzyl)piperidin-4-yl)-5-(4-(4-(trifluoromethylsulfonyl)phenyl)piperazine-1-carbonyl)picolinamide] it is less than 500 nM.
In turn, `N#Cc1ccc(CN2CCC(NC(=O)c3ccc(C(=O)N4CCN(c5ccc(C(=O)C6CC6)cc5)CC4)cn3)CC2)cc1` [Compound 258, N-(1-(4-cyanobenzyl)piperidin-4-yl)-5-(4-(4-(cyclopropanecarbonyl)phenyl)piperazine-1-carbonyl)picolinamide] displayed an EC50 of less than 500 nM.
Under `CC(=O)c1ccc(Oc2ccc(NC(=O)c3ccc(C(=O)N4CCC(Oc5ccc(S(C)(=O)=O)cc5)CC4)cn3)cn2)cc1` [Compound 259, N-(6-(4-acetylphenoxy)pyridin-3-yl)-5-(4-(4-(methylsulfonyl)phenoxy)piperidine-1-carbonyl)picolinamide] stands less than 500 nM; under `CCS(=O)(=O)c1ccc(C(=O)C2CCN(C(=O)c3ccc(C(=O)NC4CCN(Cc5ccc(C#N)cc5)CC4)nc3)CC2)cc1` [Compound 260, N-(1-(4-cyanobenzyl)piperidin-4-yl)-5-(4-(4-(ethylsulfonyl)benzoyl)piperidine-1-carbonyl)picolinamide], less than 500 nM.
The figure for `CS(=O)(=O)c1ccc(OC2CCN(C(=O)c3ccc(C(=O)Nc4ccc(S(=O)(=O)c5ccc(F)cc5)nc4)nc3)CC2)cc1` [Compound 261, N-(6-(4-fluorophenylsulfonyl)pyridin-3-yl)-5-(4-(4-(methylsulfonyl)phenoxy)piperidine-1-carbonyl)picolinamide] is less than 500 nM; for `N#Cc1ccc(CN2CCC(NC(=O)c3ccc(C(=O)N4CCC(S(=O)(=O)c5ccc(F)cc5)CC4)cn3)CC2)cc1` [Compound 262, N-(1-(4-cyanobenzyl)piperidin-4-yl)-5-(4-(4-fluorophenylsulfonyl)piperidine-1-carbonyl)picolinamide] it is less than 500 nM.
The figure for `N#Cc1ccc(CN2CCC(NC(=O)c3ccc(C(=O)N4CCN(c5ccc(C(=O)C(F)(F)F)cc5)CC4)cn3)CC2)cc1` [Compound 263, N-(1-(4-cyanobenzyl)piperidin-4-yl)-5-(4-(4-(2,2,2-trifluoroacetyl)phenyl)piperazine-1-carbonyl)picolinamide] is less than 500 nM; for `O=C(NC1CCN(Cc2ccccc2)CC1)c1ccc(C(=O)NC2CCN(Cc3ccccc3)CC2)nc1` [Compound 264, N2,N5-bis(1-benzylpiperidin-4-yl)pyridine-2,5-dicarboxamide] it is 5000 to 10000 nM; for `N#Cc1ccc(CN2CCC(NC(=O)c3ccc(N4CCCC(Oc5ccc(C#N)cc5)C4)cn3)CC2)cc1` (centres unmarked) [Compound 265, N-(1-(4-cyanobenzyl)piperidin-4-yl)-5-(3-(4-cyanophenoxy)piperidin-1-yl)picolinamide] it is 1000 to 5000 nM.
Turning to `N#Cc1ccc(CN2CCC(NC(=O)c3ccc(N4CCC(C(=O)c5ccc(Cl)cc5)CC4)cn3)CC2)cc1` [Compound 266, 5-(4-(4-chlorobenzoyl)piperidin-1-yl)-N-(1-(4-cyanobenzyl)piperidin-4-yl)picolinamide], the EC50 is less than 500 nM.
Regarding `N#Cc1ccc(CN2CCC(NC(=O)c3ccc(NC4CCN(c5ccc(C#N)cc5)CC4)cn3)CC2)cc1` [Compound 267, N-(1-(4-cyanobenzyl)piperidin-4-yl)-5-(1-(4-cyanophenyl)piperidin-4-ylamino)picolinamide], the 50% effective concentration (EC50) was less than 500 nM.
The figure for `CC(C)(c1ccc(F)cc1)N1CCN(C(=O)c2ccc(C(=O)NC3CCN(Cc4ccc(C#N)cc4)CC3)nc2)CC1` [Compound 268, N-(1-(4-cyanobenzyl)piperidin-4-yl)-5-(4-(2-(4-fluorophenyl)propan-2-yl)piperazine-1-carbonyl)picolinamide] is less than 500 nM; for `N#Cc1ccc(CN2CCC(NC(=O)c3ccc(C(=O)N4CCC(Oc5ccncc5)CC4)cn3)CC2)cc1` [Compound 269, N-(1-(4-cyanobenzyl)piperidin-4-yl)-5-(4-(pyridin-4-yloxy)piperidine-1-carbonyl)picolinamide] it is less than 500 nM.
As for `N#Cc1ccc(CN2CCC(NC(=O)c3ccc(C(=O)N4CC[C@H](Oc5ccc(F)cc5)C4)cn3)CC2)cc1` [Compound 270, (S)—N-(1-(4-cyanobenzyl)piperidin-4-yl)-5-(3-(4-fluorophenoxy)pyrrolidine-1-carbonyl)picolinamide], the EC50 is less than 500 nM.
`N#Cc1ccc(CN2CCC(NC(=O)c3ccc(C(=O)N4CCC(C(=O)c5ccc(F)cc5F)CC4)cn3)CC2)cc1` [Compound 271, N-(1-(4-cyanobenzyl)piperidin-4-yl)-5-(4-(2,4-difluorobenzoyl)piperidine-1-carbonyl)picolinamide] yielded an EC50 of less than 500 nM.
For the compound `O=C(Nc1ccc(Oc2ccc(F)cc2)nc1)c1ccc(C(=O)N2CCC(C(=O)c3ccc(F)cc3)CC2)cn1` [Compound 272, 5-(4-(4-fluorobenzoyl)piperidine-1-carbonyl)-N-(6-(4-fluorophenoxy)pyridin-3-yl)picolinamide], the EC50 was less than 500 nM.
As for `O=C(Nc1ccc(Oc2ccc(F)cc2)nc1)c1ccc(C(=O)N2CCC(Oc3ccc(F)cc3)CC2)cn1` [Compound 273, 5-(4-(4-fluorophenoxy)piperidine-1-carbonyl)-N-(6-(4-fluorophenoxy)pyridin-3-yl)picolinamide], the EC50 is less than 500 nM.
As to `COc1ccc(N2CCC(Nc3ccc(C(=O)NC4CCN(Cc5ccc(C#N)cc5)CC4)nc3)CC2)cc1` [Compound 275, N-(1-(4-cyanobenzyl)piperidin-4-yl)-5-(1-(4-methoxyphenyl)piperidin-4-ylamino)picolinamide], the half-maximal effective concentration (EC50) was less than 500 nM.
Under `N#Cc1ccc(CN2CCC(NC(=O)c3ccc(NC4CCN(c5ccc(F)cc5)CC4)cn3)CC2)cc1` [Compound 276, N-(1-(4-cyanobenzyl)piperidin-4-yl)-5-(1-(4-fluorophenyl)piperidin-4-ylamino)picolinamide] stands less than 500 nM.
`COc1cccc(OC2CCCN(C(=O)c3ccc(C(=O)NC4CCN(Cc5ccc(C#N)cc5)CC4)nc3)C2)c1` (centres unmarked) [Compound 277, N-(1-(4-cyanobenzyl)piperidin-4-yl)-5-(3-(3-methoxyphenoxy)piperidine-1-carbonyl)picolinamide] showed a half-maximal effective concentration (EC50) of less than 500 nM.
Under `N#Cc1ccc(CN2CCC(NC(=O)c3ccc(C(=O)N4CC[C@@H](Oc5ccc(F)cc5)C4)cn3)CC2)cc1` [Compound 278, (R)—N-(1-(4-cyanobenzyl)piperidin-4-yl)-5-(3-(4-fluorophenoxy)pyrrolidine-1-carbonyl)picolinamide] stands less than 500 nM; under `N#Cc1ccc(CN2CCC(NC(=O)c3ccc(C(=O)N4C5CCC4CC(Oc4ccc(C#N)cc4)C5)cn3)CC2)cc1` [Compound 280, N-(1-(4-cyanobenzyl)piperidin-4-yl)-5-((1R,3r,5S)-3-(4-cyanophenoxy)-8-azabicyclo[3.2.1]octane-8-carbonyl)picolinamide], less than 500 nM.
As for `N#Cc1ccc(CN2CCC(NC(=O)c3ccc(C(=O)N4CCC(C(=O)c5ccc(F)c(F)c5)CC4)cn3)CC2)cc1` [Compound 281, N-(1-(4-cyanobenzyl)piperidin-4-yl)-5-(4-(3,4-difluorobenzoyl)piperidine-1-carbonyl)picolinamide], the EC50 was less than 500 nM.
The figure for `N#Cc1ccc(CN2CCC(NC(=O)c3ccc(C(=O)N4CCC(Oc5ccc(F)cc5F)CC4)cn3)CC2)cc1` [Compound 282, N-(1-(4-cyanobenzyl)piperidin-4-yl)-5-(4-(2,4-difluorophenoxy)piperidine-1-carbonyl)picolinamide] is less than 500 nM.
`N#Cc1ccc(CN2CCC(NC(=O)c3ccc(C(=O)N4CCC(Oc5cccnc5)CC4)cn3)CC2)cc1` [Compound 283, N-(1-(4-cyanobenzyl)piperidin-4-yl)-5-(4-(pyridin-3-yloxy)piperidine-1-carbonyl)picolinamide] had an EC50 of less than 500 nM.
Compound `CCOC(=O)c1ccc(OC2CCN(C(=O)c3ccc(C(=O)NC4CCN(Cc5ccc(C#N)cc5)CC4)nc3)CC2)cc1` [Compound 284, ethyl 4-(1-(6-(1-(4-cyanobenzyl)piperidin-4-ylcarbamoyl)nicotinoyl)piperidin-4-yloxy)benzoate] returned an EC50 of less than 500 nM.
